# From publication PMC7892644 (Cancer discovery, 2020)
# Where two headings read alike, the source gives them in different places.
# Key:
# [1] = system: recombinant SOS1 and recombinant KRAS G12C; assay: AlphaScreen protein-protein interaction assay, SOS1 and KRAS G12C; assay type: binding; settings: KRAS-GDP, result in words
# [2] = system: recombinant SOS1 and recombinant KRAS G12D; assay: AlphaScreen protein-protein interaction assay, SOS1 and KRAS G12D; assay type: binding; settings: KRAS-GDP, result in words
# [3] = system: panel of 24 cell lines, including 18 KRAS-mutated cell lines; assay: 2D proliferation assays across a panel of 24 cell lines; assay type: cell-based
# [4] = system: NCI-H520 cells (KRAS wild-type); assay: 3D proliferation assay, NCI-H520; assay type: cell-based
# [5] = system: KRAS Q61K mutant pancreatic PDX model; assay: KRAS Q61K mutant pancreatic PDX model efficacy; assay type: in vivo, mice; settings: BI-3406 50 mg/kg bid, trametinib 0.1 mg/kg bid, 5 days on/2 days off
# [6] = system: retinal pigment epithelial cells; assay: Proliferation of retinal pigment epithelial cells; assay type: cell-based; settings: Epithelial cell, read-out: IC50, proliferation
# [7] = system: KRAS G12C-mutated MIA PaCa-2 xenografts; settings: 12 or 50 mg/kg twice daily; p<0.005 vs vehicle control
# [8] = system: panel of 24 cell lines, including 18 KRAS-mutated cell lines; assay: 3D proliferation assays across a panel of 24 cell lines; assay type: cell-based; settings: for IC50: read-out: IC50, 3D proliferation
# [9] = system: A375 cells (KRAS wild-type, BRAF V600E); assay: 3D proliferation assay, A375; assay type: cell-based
# [10] = system: primary smooth muscle cells; assay: Proliferation of primary smooth muscle cells; assay type: cell-based; settings: read-out: IC50, proliferation
# [11] = system: pERK levels in isogenic NCI-H23 cell lines; assay: pERK levels in isogenic NCI-H23 cell lines
# [12] = system: pERK levels in A375 melanoma cells (KRAS wild-type, BRAF V600E); assay: pERK inhibition in A375 cells; assay type: cell-based; settings: A375, 1 hour, 2D
# foreskin fibroblasts = assay: cells; settings: Fibroblast, read-out: IC50, proliferation
structure (smiles),measurement,setting,value
C=CC(=O)N1CCN(c2ncnc3c(F)c(-c4c(O)cccc4F)c(Cl)cc23)CC1 [ARS-1620],inhibition of SOS1 interaction with KRAS G12C,[1],able to interfere
same,inhibition of SOS1 interaction with KRAS G12D,[2],no effect
CNCc1ccccc1-c1csc([C@@H](C)Nc2nc(C)nc3cc(OC)c(OC)cc23)c1 [BAY293],activity in 2D proliferation assays,[3],no activity
COc1cc2nc(C)nc(N[C@H](C)c3cc(N)cc(C(F)(F)F)c3)c2cc1O[C@H]1CCOC1 [BI-3406],effect on 3D growth,[4],not appreciably affected
same,antitumor efficacy,[5],only weak efficacy
same,IC50,[6],> 5000 nM
same,tumor growth inhibition,[7],prolonged dose-dependent tumor growth inhibition
same,IC50,[8],9 to 220 nM
same,effect on 3D growth,[9],not appreciably affected
same,IC50,[10],> 5000 nM
same,modulation of pERK,[11]; NCI-H23 cells carrying the G12R variant,No modulation
same,inhibition of pERK levels,[11]; NCI-H23 cells carrying the Q61H oncogenic variant,weak inhibition
same,reduction of pERK levels,"[11]; all KRAS variant isogenic NCI-H23 cell lines, independent of zygosity",~50%
same,activity in 2D proliferation assays,[3],no activity
same,pERK modulation,[12],No pERK modulation
CC1(N)CCN(c2cnc(-c3cccc(Cl)c3Cl)c(N)n2)CC1 [SHP099],effect in 3D proliferation,[8]; Q61L/H and G12R KRAS mutant tumor cells,no effects were detectable
same,IC50,"[8]; KRAS G12C, a subset of G12D cell lines, and one G12S cell line",167 to 790 nM
same,IC50,[8]; KRAS G13D and G12V cells,1180 to 4410 nM
same,activity in 2D proliferation assays,[3],no activity
Cc1[nH]c2ccccc2c1CCNCc1ccc(/C=C/C(=O)NO)cc1 [panobinostat],effect on 3D growth,[4],responded
same,effect on 3D growth,[9],responded
CC(=O)Nc1cccc(-n2c(=O)n(C3CC3)c(=O)c3c(Nc4ccc(I)cc4F)n(C)c(=O)c(C)c32)c1 [trametinib],IC50,[6],12 nM
same,IC50,foreskin fibroblasts,85 nM
same,IC50,[10],843 nM
